For series [1], the system named is syndecan-mutant mice. Put plainly: Cue-induced reinstatement of cocaine-seeking behavior. It is filed as in vivo. The settings on record: for reinstatement of cocaine seeking behavior in mice (figure legend): FIG. 6 legend. The source says: . Separate groups of mice of the 3 syndecan mutant genotypes (syndecan-3 knockout, whole syndecan-1 transgenic, and syndecan-1 ectodomain transgenic mice) were trained to self-administer cocaine by intravenous injection as described above. Mice were subjected to 7 sessions of 1-hour access to self-administration followed by 8 sessions of 6-hour access as described above.
Mice were allowed one 1-hour extinction session/day for a minimum of 14 days, until an extinction criterion was reached. The extinction criterion was designated as a group mean of less than 10 responses/1 hour for two consecutive sessions on the active lever.
The conditions during testing were identical to those during the extinction phase, with the exception that lever presses led to presentations of the cocaine cue-light for 5 seconds. The 1-hour test session for cue-induced reinstatement were conducted on the day following the last extinction session. A one way ANOVA with one between factor (genotype, three) were used to measure any differential effects of the cocaine-related cue induced reinstatement.
In still another example, the following experiment was performed showing that a wide spectrum of MMP inhibitors block cue-induced reinstatement of cocaine seeking behavior. Lever-pressing behavior in cocaine self-administering syndecan-mutant mice was extinguished in the absence of the 20 sec cue light (CS) that was paired with cocaine infusions during the training phase as shown in Example 4. […] In FIG. 6B, After a few days, animals were again presented with the cue light non-contingently and on the third day of reinstatement they were administered IP the systemically active broad-spectrum MMP inhibitor prinomastat (20 mg/Kg) 30-60 min before the reinstatement sessions starting on the third session.

For series [2], the system named is syndecan-3. Nature of the series: Western blot of uncleaved syndecan-3 after ICV GM-6001 in mice. In kind it is in vivo, C57BL/6J mice. Conditions: for uncleaved syndecan-3 / shedding of syndecan-3 (western blot, syndecan-3 C-terminal domain antibody): ICV at various doses, sacrificed 3 hours after administration. An excerpt: FIG. 5B. Quantification of western blot shown in (A).

Series [3] in a line: Rotarod performance. It is filed as in vivo, mice. The settings on record: prinomastat at the dose used (20 mg/Kg IP); data not shown. (In general: In the rotarod test animals must keep their balance on a rotating rod.)
The subject of series [4] is mouse hypothalamic protein extracts. Nature of the series: Cleavage of internally-quenched fluorogenic peptides by hypothalamic protein extracts. It is filed as biochemical. The settings on record: 37° C., 50 mM Tris-HCl buffer, pH 7.0; for proteolytic cleavage of the fluorogenic peptide by hypothalamic extracts: peptide as substrate. An excerpt:
According to one of the embodiments of the invention, syndecan-3 sheddases are identified by an assay for syndecan-3 cleavage, which requires knowledge of the cleavage site. The cleavage site for syndecan-3 cleavage is not presently completely identified. However, according to embodiments of the invention, we designed a battery of overlapping internally-quenched fluorogenic peptides spanning the juxta-membrane region of the mouse syndecan-3 (Amino Acid residues 355-388) labeled at their ends with Abz (ortho-aminobenzoyl) and EDDnp (ethylenediaminedinitrophenyl) for fluorescent detection of proteolytic cleavage (FIG. 7A). The peptides were individually incubated with mouse hypothalamic protein extracts at 37° C. in 50 mM Tris-HCl buffer, pH 7.0. Fluorescence was continuously measured at λex=320 nm and λem=420 nm. […] Proteolytic activity is expressed as reaction rate (activity/μl/min). […] Thus, this peptide or a peptide overlapping this peptide can be used in an assay to identify the sheddase of syndecan-3 and/or drugs that prevent or facilitate shedding (inhibitors, activators, mimics antimimics).
While the invention has been described in conjunction with the detailed description, the foregoing description is intended to illustrate and not limit the scope of the invention, which is defined by the scope of the appended claims. Other aspects, advantages, and modifications are within the scope of the following claims.

Ends that are not written are not given here.

On to Ilomastat [GM6001], for which the “reinstatement of cocaine seeking behavior in mice (figure legend)” value in series [1] was “block reinstatement of cocaine seeking behavior”. Moreover, in series [1] (GM6001 0.4 μg ICV 30-60 min before sessions, syndecan-3 KO mice), the “responding during reinstatement, last day before treatment vs last day of treatment” value is listed as “not significantly different”. In series [1] (GM6001 0.4 μg ICV 30-60 min before sessions, whole syndecan-1 Tg mice, p<0.01 from last day before treatment), the “cocaine seeking behavior (responding) during reinstatement” value is recorded as “greatly reduced”. The “uncleaved syndecan-3 / shedding of syndecan-3 (western blot, syndecan-3 C-terminal domain antibody)” value was “reduces shedding of syndecan-3” in series [2] and “accumulation of uncleaved syndecan-3” in series [2] (listed as GM-6001). For the same compound, the “increase of uncleaved syndecan-3 (quantification of western blot)” value in series [2] (ICV, highest doses tested (0.4 μg, 2.0 μg), p<0.01 from vehicle-injected control) is “about 3 fold”.

Take `CC1(C)SCCN(S(=O)(=O)c2ccc(Oc3ccncc3)cc2)[C@H]1C(=O)NO` [prinomastat, Prinomastat]: in series [3], the “performance on the rotarod” value is given as “did not affect”. Also, in series [1], the “reinstatement of cocaine seeking behavior in mice (figure legend)” value is on record as “block reinstatement of cocaine seeking behavior”. In addition, the responding during reinstatement result in series [1] (prinomastat 20 mg/Kg IP 30-60 min before sessions, syndecan-1 ectodomain Tg mice, p<0.01 from last day before treatment) is reported as “significantly declined”.

Take `c1cnc2c(c1)ccc1cccnc12` [ortho-phenanthroline]: the “inhibition of hydrolysis of peptide 1 (Seq Id No. 3) by hypothalamic extract” value in series [4] (fluorescence λex=320 nm, λem=420 nm) is listed as “completely inhibited”.

Consider Mca-PLQAV-Dpa-RSSSR-NH2 [Compound E003], for which the “proteolytic cleavage of the fluorogenic peptide by hypothalamic extracts” value in series [4] is “observed activity”.

As for “RPGLGLHDNA (not fully specified; also: fluorophore/quencher pair (positions not given here); listed as Mus musculus) [Peptide 1, internally-quenched fluorogenic peptide from mouse syndecan-3 juxta-membrane region]”, in series [4], the “proteolytic cleavage of the fluorogenic peptide by hypothalamic extracts” value is “efficiently hydrolized”.

The values are drawn from patent US8847003B2, “Role of proteoglycans in drug dependence” (priority 2002, dated 2014).
